Tests used:
[1] = system: H9 human embryonic stem cells (hESCs); assay: Flow cytometry for P75 (neural crest stem cell marker) in cultured cells; type: cell-based; conditions: suspension about 3 days + adherent about 4 days (FIG. 3E)
Method: The obtained colonies were finely chopped and suspension-cultured under conditions of 37° C. and 5% CO2 in an EB medium containing 10 μM of SB431542 (GlaxoSmithKline: GSK) as a TGF-β I receptor inhibitor and 0.5 μM to 1 μM of dorsomorphin homolog 1 (DMH1) (Tocris Bioscience, USA) or dorsomorphin (Tocris Bioscience, […]). EB medium contained DMEM/F12 (Life Technologies), 20%(v/v) Knockout serum replacement (KSR, Invitrogen), lx non-essential amino acids (Invitrogen), 0.1 mM 13-mercaptoethanol (Invitrogen), and lx penicillin/streptomycin (Invitrogen). As a negative control, dimethyl sulfoxide (DMSO) (Sigma-Aldrich) was used instead of the drug. […] To analyze a proportion of cells expressing P75 protein which is a neural crest stem cell (NCSC) marker, or SOX1 which is a neural progenitor cell (NPC) marker, immunostaining was performed using phycoerythrin (PE)-labeled anti-P75 monoclonal antibody (1:50 dilution) (Miltenyi Biotec), and phycoerythrin (PE)-labeled anti-Sox1 monoclonal antibody (1:100 dilution) (BD Biosciences). The immunostained cells were subjected to flow cytometry using a BD FACSCalibur flow cytometer (BD Biosciences, Sparks, Md., USA). The results of flow cytometry are shown in FIGS. 2A and 2B (FIG. 2A: a graph of P75 flow cytometry, FIG. 2B: a graph of SOX1 flow cytometry). Cells suspension-cultured for about 3 days and adherent-cultured for about 4 days were subjected to P75 flow cytometry, as described in Example 1.2, and the results of flow cytometry are shown in FIG. 3E (upper: SB431542 and DMH1, lower: SB431542 and dorsomorphin).

[2] = system: H9 human embryonic stem cells (hESCs); assay: Embryoid body count after suspension culture of H9 hESCs; type: cell-based; conditions: increasing concentrations of DMH1 in EB medium with 10 μM SB431542; suspension culture about 4 days; p<0.001
Method: Colonies obtained by culturing H9 human embryonic stem cells (hESCs) (WiCell Research Institute, Inc. Madison, Wis., U.S.A.) in a culture medium were dissociated into single cells using accutase (Life Technologies). The cells dissociated into single cells were seeded in a culture plate coated with a protein such as vitronectin (VTN) (vitronectin XF, STEMCELL Technologies), […]-521, Thermo Fisher Scientific Inc., Waltham, Mass., USA), fibronectin (Thermo Fisher Scientific Inc.), or MatrigelTM (StemCell Technologies, Inc.). An embryonic stem cell (ESC) culture medium was added to the seeded cells to perform undifferentiation culture. As the ESC culture medium, Essential 8 (E8) medium (StemCell Technologies Inc.), TeSR2 medium (StemCell Technologies Inc), StemMACS (Miltenyi Biotec, Bergisch Gladbach, Germany), etc. was used. […] The number of round-shaped embryoid bodies were counted, and the number of embryoid bodies per unit area (embryoid body/cm^2) according to DMH1 concentrations is shown in FIG. 1D (***: p<0.001).

Compound | proportion of P75-expressing cells ([1]; 0.5 μM to 1 μM DMH1 + 10 μM SB431542) | proportion of P75-expressing cells ([1]; 2.5 μM DMH1 + 10 μM SB431542) | number of embryoid bodies per unit area [2] | proportion of P75-expressing cells ([1]; 0.5 μM BMP inhibitor in EB medium containing 10 μM SB431542 and dorsomorphin)
CC(C)Oc1ccc(-c2cnc3c(-c4ccnc5ccccc45)cnn3c2)cc1 [DMH1, 4-[6-[4-(1-Methylethoxy)phenyl]pyrazolo[1,5-a]pyrimidin-3-yl]-quinoline] | ≥ 69.8% | about 28.9% | significantly decreased | –
c1cc(-c2cnn3cc(-c4ccc(OCCN5CCCCC5)cc4)cnc23)ccn1 [dorsomorphin, 6-[4-[2-(1-Piperidinyl)pethoxy]phenyl]-3-(4-pyridinyl)-pyrazolo[1,5-a]pyrimidine] | – | – | – | ≥ 83.2%

Source: patent US20220106564A1, “COMPOSITION AND KIT FOR DIFFERENTIATION OF STEM CELLS INTO NEURAL CREST STEM CELLS, INCLUDING INHIBITOR OF TGF-BETA I RECEPTOR AND BMP INHIBITOR, AND METHOD USING SAME” (CHA UNIVERSITY INDUSTRY-ACADEMIC COOPERATION FOUNDATION, priority 2019, published 2022)
